Assay results as given in US20190202774A1, “BIARYL COMPOUNDS AS ANTIMICROBIAL AND CHEMOTHERAPEUTIC AGENTS” (priority 2015, published 2019).
Converted amounts (≈) assume the structure as drawn. “Also recorded” adds a separate entry of the source. Counter-ions that a name gives are not always drawn. Like-named read-outs stand apart in the source and are kept apart here.

Columns and labels:
[1] = system: MRSA strain USA300; assay: DiSC3(5) membrane permeabilization; type: cell-based, Staphylococcus aureus; conditions: positive control, 100 nM
Experimental: Biaryl compounds and their analogues have been reported to be membrane active agents (Isnansetyo and Kamei, 2003 and Kamei et al., 2003). An experiment was performed to verify the membrane permeabilization activity of biaryl compound. C58 using a fluorescent dye, 3,3′-Dipropylthiacarbocyanine iodide (DiSC3(5)). The fluorescence signal from DiSC3(5) is in a quenched state when it interacts with the hydrophobic region of the cell membrane. Upon disruption of the membrane, DiSC3(5) is released and regains its fluorescent activity, which is measured as a fluorescence signal (RFU).

[2] = system: H460; assay: Lung cancer cell survival, H460; type: cell-based; conditions: 72 hour incubation, non-linear curve fit
Experimental: (§1) The IC50 values generated using a non-linear curve fit with lung cancer cell lines, A549, H460, H2122, and H2073 are listed in Table 10. Experiments were performed using C58, C58-2, C59, C59-2, C119, and acetylated C119 (C119-2). […] Additionally, these concentrations are clinically achievable for treatment of lung cancer and a detailed structure activity relationship experiments needs to be performed to identify promising anticancer candidates.

[3] = system: H2073; assay: Lung cancer cell survival, H2073; type: cell-based; conditions: 72 hour incubation, non-linear curve fit
Experimental: as §1

[4] = system: A549; assay: Lung cancer cell survival, A549; type: cell-based; conditions: 72 hour incubation, non-linear curve fit
Experimental: as §1

[5] = system: H2122; assay: Lung cancer cell survival, H2122; type: cell-based; conditions: 72 hour incubation, non-linear curve fit
Experimental: as §1

[6] = system: MRSA strains USA300, 0606, 0608, 0634, 0641, and 0646; assay: MIC/MBC against six MRSA strains (variants of C58/C59, pH, DMSO); type: cell-based, Staphylococcus aureus
Experimental: Six MRSA strains, USA300, 0606, 0608, 0634, 0641, and 0646 were chosen based on their activity against biaryl compounds and vancomycin to determine structure-activity relationship of biaryl compounds. The effect of phenolic group on the activity of biaryl compounds was tested by modifying C59. First, the phenolic group was protected by acetylation to yield an acetylated C59 (C59-2) (FIG. 7B). Additional variants of C59, in the form of sodium and lithium salts were synthesized by incubation with sodium hydroxide and lithium hydroxide (FIGS. 7C and 7D). Antimicrobial activity of these deprotonated, water-soluble sodium (C59Na) and lithium (C59Li) salts, and acetylated derivative of C59 was tested against 6 MRSA strains and compared to the parent compound, C59 (FIGS. 8A-8D). Results from this comparative experiment indicate the contribution of phenolic group/phenoxide ion to the antimicrobial activity.
Further investigation into activity of these compounds under acidic pH conditions also points towards the role of phenolic group. An effective antimicrobial should be active under a wide range of pH conditions, including the physiological pH of 7.4. Localized pH in an infection is often lower than the physiological pH, and may be as low as 5.5 (Radovic-Moreno et al., 2012). Additionally, pH varies among organs (Radovic-Moreno et al., 2012). For example, pH in the bladder or on the skin is found to be between 4.5 and 8.0, or 4.0 and 5.5, respectively (Radovic-Moreno et al., 2012). […] The activity of all biaryl compounds is enhanced by at least four- to eight-fold with reduction in pH from 7.4 to 5.5.
Water soluble sodium and lithium salts of C59 (C59Na and C59Li) and their antimicrobial activity against six MRSA strains are reported above. A sodium salt of C58 (C58Na) was prepared and evaluated efficacy of this compound against these six MRSA strains. […] The poor activity of C58Na may be a result of poor stability of C58Na compared with C59Na and C59Li.

[7] = system: erythrocytes from sheep blood; assay: Hemolytic activity
Experimental: Toxicity of biaryl compounds was tested against erythrocytes as well as eukaryotic epithelial, dermal, and macrophage cell lines in vitro.
Toxicity of lead antimicrobial candidates was tested against erythrocytes, as well as eukaryotic epithelial and dermal cell lines in vitro.

[8] = system: human lung airway epithelial cells (16HBE); conditions: 24-h incubation, non-linear curve fit
Experimental: Finally, toxicity of biaryl compounds was tested against human lung airway epithelial cells (16HBE), human dermal fibroblasts, and J774.A1 murine macrophages using an ALAMARBLUE® Cell Viability Assay. Biaryl compounds, C58, acetylated C58 (C58-2), C59, C59-2, C59Na, and C59Li were incubated with cells for 24 hours and an ALAMARBLUE® Cell Viability Assay was performed to determine cell viability relative to untreated controls (FIGS. 13A-13C). Cell viability curves were analyzed using non-linear curve fit to yield the inhibitory concentration at median cell survival (LD50) for all cell lines (Table 3).
Next, the toxicity of lead candidates was tested against human lung airway epithelial cells (16HBE) and human dermal fibroblasts (HDF) using an alamarBlue® Cell Viability Assay.

[9] = system: R. equi strains 701+, 701−, 703, and 5331; assay: MIC/MBC broth microdilution against R. equi; type: cell-based, Rhodococcus equi
[10] = system: 38 MRSA strains; assay: microbe, parasite or virus in culture; conditions: Staphylococcus aureus
[11] = system: 38 MRSA strains
[12] = system: seven S. pneumoniae strains; assay: MIC/MBC against panel of S. pneumoniae strains; type: cell-based; conditions: Streptococcus pneumoniae
Experimental: The activity of compounds against Gram-positive pathogens, S. pyogenes and S. pneumoniae, identified through the preliminary screen (FIG. 15) was evaluated against a panel of these pathogens.

[13] = system: MRSA strains SAD05 and 0632 in a biofilm; assay: MBEC High-throughput biofilm assay; type: cell-based, Staphylococcus aureus; conditions: 6 hours
[14] = system: E. faecalis strains 49532 and 51575; assay: MIC/MBC broth microdilution against E. faecalis; type: cell-based, Enterococcus faecalis; conditions: Enterococcus faecalis
[15] = system: MRSA strains USA300 and SALL06; assay: Kill kinetics with stationary-phase MRSA; type: cell-based, Staphylococcus aureus
[16] = system: 21 S. epidermidis strains; assay: MIC90/MBC90 broth microdilution against 21 S. epidermidis strains; type: cell-based, Staphylococcus epidermidis; conditions: Staphylococcus epidermidis
From the text: We are currently in the process of evaluating the MICs and MBCs for 5-32.

[17] = system: MRSA strain USA300; assay: Kill kinetics with planktonic log-phase MRSA; type: cell-based, Staphylococcus aureus; conditions: log-phase USA300, 24 hours
[18] = read-out: MBC90, 38 MRSA strains, MH broth

For `O=C(Nc1ccc(Cl)c(Cl)c1)c1cc(Cl)cc(Cl)c1O` [3,3′,4′,5-tetrachlorosalicylanilide, reference compound], the “membrane disruption (DiSC3(5) fluorescence)” value [1] was “positive membrane disruption”.

`CC(=O)Oc1c(Br)cc(Br)cc1-c1cc(Br)cc(Br)c1OC(C)=O` [C58-2] was tested, and the “H460 LD50” value [2] was 51 µM, the “H2073 LD50” value [3] was 36 µM and the “A549 LD50” value [4] was 74 µM. For the same compound, the “H2122 LD50” value [5] was 87 µM.

With `[Na+].[Na+].[O-]c1c(Br)cc(Br)cc1-c1cc(Br)cc(Br)c1[O-]` [C58Na] the “activity in the absence of DMSO versus with 2.5% DMSO” value [6] was “at least comparable activity”, the “antimicrobial activity (MIC and MBC) compared to the parent compound” value [6] was “poor activity” and the onset of hemolysis [7] was 32 to 48 µg/mL. For the same compound, the “16HBE LD50” value [8] was 92.3 µg/mL.

`CC(=O)Oc1c(Cl)cc(Cl)cc1-c1cc(Cl)cc(Cl)c1OC(C)=O` [C59-2] was tested, and the “H460 LD50” value [2] was 73 µM, the “H2073 LD50” value [3] was 45 µM and the “antimicrobial activity (MIC and MBC) compared to the parent compound” value [6] was “Reduction of activity”. For the same compound, the “A549 LD50” value [4] was 74 µM, the MBC ([9]; strain 701+) was 16 µg/mL (≈ 39.2 µM) and the MIC ([9]; strain 701+) was 4 µg/mL (≈ 9.8 µM). For the same compound, the MBC ([9]; strain 701−) was 16 µg/mL (≈ 39.2 µM), the MIC ([9]; strain 701−) was 4 µg/mL (≈ 9.8 µM) and the MBC ([9]; strain 703) was 16 µg/mL (≈ 39.2 µM). It also gave an MIC ([9]; strain 703) of 2 µg/mL (≈ 4.9 µM), an MBC ([9]; strain 5331) of 16 µg/mL (≈ 39.2 µM) and an MIC ([9]; strain 5331) of 4 µg/mL (≈ 9.8 µM). The “H2122 LD50” value [5] was 99 µM.

For `[Li+].[Li+].[O-]c1c(Cl)cc(Cl)cc1-c1cc(Cl)cc(Cl)c1[O-]` [C59Li], the “activity in the absence of DMSO versus with 2.5% DMSO” value [6] was “at least comparable activity”, the “antimicrobial activity (MIC and MBC) compared to the parent compound” value [6] was “enhanced activity; also recorded: superior activity over C59” and the “16HBE LD50” value [8] was 24.4 µg/mL.

For `Nc1c(-c2c(O)ccc3ccccc23)cc(Cl)c(Cl)c1Cl` [C119], the “H460 LD50” value [2] was 37 µM, the “H2073 LD50” value [3] was 33 µM and the “A549 LD50” value [4] was 52 µM. The “H2122 LD50” value [5] was 58 µM.

In the case of `CCC[C@@H]1C[C@@H](C(=O)N[C@@H]([C@H]2O[C@H](SC)[C@H](O)[C@@H](O)[C@H]2O)[C@H](C)Cl)N(C)C1` [Clindamycin hydrochloride], the MIC90 ([10]; 38 MRSA strains, MH broth) is reported as no less than 32 µg/mL, the MBC [10, 18] is reported as no less than 32 µg/mL and the MBC90 ([11]; MH broth, hydrochloride) is reported as greater than 32 µg/mL. It also gave an MIC90 ([11]; MH broth, hydrochloride) greater than 32 µg/mL.

`CCCCCCCCCC(=O)N[C@@H](Cc1c[nH]c2ccccc12)C(=O)N[C@H](CC(N)=O)C(=O)N[C@@H](CC(=O)O)C(=O)N[C@@H]1C(=O)NCC(=O)N[C@@H](CCCN)C(=O)N[C@@H](CC(=O)O)C(=O)N[C@H](C)C(=O)N[C@@H](CC(=O)O)C(=O)NCC(=O)N[C@H](CO)C(=O)N[C@@H]([C@H](C)CC(=O)O)C(=O)N[C@@H](CC(=O)c2ccccc2N)C(=O)O[C@@H]1C` [Daptomycin hydrochloride] gave an MBC90 ([11]; MH broth) greater than 32 µg/mL and an MBC90 ([11]; cation adjusted MH broth) of 2 µg/mL.

With `CC(=O)NC[C@H]1CN(c2ccc(N3CCOCC3)c(F)c2)C(=O)O1` [Linezolid] the MIC90 ([10]; 38 MRSA strains, MH broth) was 4 µg/mL (≈ 11.9 µM) and the MBC [10, 18] was greater than 32 µg/mL.

Work on `CO[C@H]1/C=C/O[C@@]2(C)Oc3c(C)c(O)c4c(O)c(c(/C=N/N5CCN(C)CC5)c(O)c4c3C2=O)NC(=O)/C(C)=C\C=C\[C@H](C)[C@H](O)[C@@H](C)[C@@H](O)[C@@H](C)[C@H](OC(C)=O)[C@@H]1C` [Rifampicin, reference compound] yielded an MBC ([9]; Rhodococcus (subgen. Prescottella) equi, strain 701+, read-out: MBC) greater than 192 µg/mL, an MIC ([9]; Rhodococcus (subgen. Prescottella) equi, strain 701+, read-out: MIC) of 0.5 µg/mL (≈ 0.608 µM) and an MBC ([9]; Rhodococcus (subgen. Prescottella) equi, strain 701−, read-out: MBC) greater than 192 µg/mL. The MIC ([9]; Rhodococcus (subgen. Prescottella) equi, strain 703) was 0.125 µg/mL (≈ 0.152 µM), the MBC ([9]; Rhodococcus (subgen. Prescottella) equi, strain 703, read-out: MBC) was 80 µg/mL (≈ 97.2 µM) and the MIC ([9]; Rhodococcus (subgen. Prescottella) equi, strain 5331) was 0.125 µg/mL (≈ 0.152 µM). The MBC ([9]; Rhodococcus (subgen. Prescottella) equi, strain 5331, read-out: MBC) was 32 µg/mL (≈ 38.9 µM) and the MIC ([9]; strain 701−) was 0.5 µg/mL (≈ 0.608 µM).

For `CN[C@H](CC(C)C)C(=O)N[C@H]1C(=O)N[C@@H](CC(N)=O)C(=O)N[C@H]2C(=O)N[C@H]3C(=O)N[C@H](C(=O)N[C@H](C(=O)O)c4cc(O)cc(O)c4-c4cc3ccc4O)[C@H](O)c3ccc(c(Cl)c3)Oc3cc2cc(c3O[C@@H]2O[C@H](CO)[C@@H](O)[C@H](O)[C@H]2O[C@H]2C[C@](C)(N)[C@H](O)[C@H](C)O2)Oc2ccc(cc2Cl)[C@H]1O` [Vancomycin hydrochloride, reference compound], the MBC ([12]; read-out: MBCs) was 0.25 to 0.5 µg/mL, the MIC ([12]; read-out: MICs) was 0.25 to 0.5 µg/mL and the “activity against biofilm mode bacteria” value [13] was “Lack of activity”. The MIC90 [10] was 2 µg/mL, the MBC ([10]; read-out: MBC90) was 16 µg/mL and the “change of activity with reduction in pH from 7.4 to 5.5” value ([6]; pH 7.4, 6.5, 5.5) was “does not exhibit any improvement”. The MBC ([14]; strain 49532) was greater than 512 µg/mL, the MIC ([14]; strain 49532) was 1 µg/mL and the MBC ([14]; strain 51575) was greater than 192 µg/mL. The MIC ([14]; strain 51575) was 192 µg/mL, the “bacterial counts versus untreated controls” value ([15]; at 24 hours, 0.5-2.0) was “no difference” and the “eradication of stationary-phase bacteria” value ([15]; stationary-phase USA300 and SALL06, up to 24 hours) was “fails to eradicate the bacterial burden completely”. The MIC90 [16] was 4 µg/mL, the MBC ([16]; read-out: MBC90) was 8 µg/mL and the “dose response of bacterial eradication” value [17] was “absence of dose response”.
